Measured values as given in patent publication US20230019027A1, “SHORT CONJUGATED OLIGOELECTROLYTESAND ANTIBIOTICS” (The Regents Of The University Of California, priority 2019, published 2023).
Blank lines part the entries; values can stand above or below the compound they belong to.

Tests used:
Assay type in all cases: cell-based
E. Coli K-12 = assay: Susceptibility test: individual MIC and check point FIC; set-up: MICCOE: unit not given beside the values; settings: for MICantibiotic: antibiotic alone, unit assumed; for FIC: smallest FIC
Experimental: (§1) FIC was calculated based on the toxicity of each molecule on E. coli as well as their combined toxicity on E. coli. The equation for calculation is as follows:
(§2) FIC═[COE]/MICCOE+[Antibiotic]/MICantibiotic
(§3) An FIC less than ≤0.5 indicates synergy, FIC in the range of >0.5 and ≤1.0 indicates additive activity, FIC in the range of >1 and […] indicates indifference, and a FIC >4 indicates antagonism.
(§4) Minimal inhibition concentration (MIC) were used to determine the toxicity of individual molecules as well as them in combination on several bacterial strains. The individual MIC were determined by the minimal concentration of molecules required to inhibit the growth of the bacterial strain in culture medium (such as Lysogeny broth (LB) and Muller Hinton Broth (MHB)) at 37° C. overnight. The combined MICs were measured by using check point method, where the bacterial strain was cultured in a 96-well plate assay with a series concentrations of COE along the rows and a series concentrations of antibiotic molecules along the columns in culture medium at 37° C. overnight. The preparation of the bacterial strain for the assay was done as known in the art. […] Further information regarding the protocol can be found in Wiegand et al., Natl. Protoc., (2008) 3(2):163-75, Orhan et al., J. of Clin. Microbiol. (2005) 43(1):140-143 and Yan et al., Chem. Sci., (2016) 7(9):5714-5722.

Acinetobactor baumanni = assay: as above
Experimental: as §1, §2, §3, §4

[1] = test system: Colistin resistant Acinetobactor baumanni; assay: as above
Experimental: as §1, §2, §3, §4

[2] = test system: Colistin resistant Pseudomonas aeruginosa; assay: as above; set-up: MICantibiotic / MICCOE: unit not given beside the values
Experimental: as §1, §2, §3, §4

[3] = test system: HepG2 (ATCC HB-8065) cells; assay: Cellular cytotoxicity, MTT viability assay; settings: 24 h incubation, at 128 μg/mL
Experimental: Cellular cytotoxicity was assessed using an MTT viability assay. HepG2 (ATCC HB-8065) cells were seeded at 1×10^4 cells/well in 96 well plates over night at 37° C. in DMEM supplemented with 10% FBS before use. COEs were serially diluted with 2-fold dilution in culture media to afford a concentration ranging from 2 to 128 μg/mL. After 24 h incubation, 10 μL of a 5 mg/mL solution of MTT was added to each well. After incubation for 2-4 h, upon discard of previous media, 100 μL of DMSO as solubilizing solution was added to each well, and absorbance at 570 nm were measured on a plate reader. Percent viability was determined by dividing background-corrected absorbance measurements by background corrected measurements for untreated cells. Formula O, Formula TT and Formula PP were measured to be around 94%, 70% and 103% of cell viability at 128 μg/mL, respectively.

[4] = test system: Pseudomonas aeruginosa 01 (PA01); assay: Susceptibility test: individual MIC and check point FIC; set-up: unit not given beside the values; settings: antibiotic alone, 37° C. overnight
Experimental: as §1, §2, §3, §4

[5] = COE in combination with Colistin, smallest FIC

Compound: CC1(C)S[C@@H]2[C@H](NC(=O)[C@H](N)c3ccccc3)C(=O)N2[C@H]1C(=O)O [Ampicilin, ampicillin]
MICantibiotic (E. Coli K-12; E. Coli K-12): 4 µg/mL

Compound: C[N+](C)(C)CCCCCCOc1cc(/C=C/c2ccc(/C=C/c3ccc(/C=C/c4cc(OCCCCCC[N+](C)(C)C)cc(OCCCCCC[N+](C)(C)C)c4)cc3)cc2)cc(OCCCCCC[N+](C)(C)C)c1 [Formula TT]
MICCOE (Acinetobactor baumanni; COE alone): 256
FIC (Acinetobactor baumanni; [5]): 0.51
MICCOE ([1]; COE alone): 256
FIC [1, 5]: 0.25
antimicrobial effect of combination (in words) ([1]; with colistin): significant synergistic antimicrobial effect
MICCOE ([2]; COE alone): 256
FIC [2, 5]: 0.14
antimicrobial effect of combination (in words) ([2]; with colistin): significant synergistic antimicrobial effect
MICCOE (E. Coli K-12; COE alone, E. Coli K-12): 1024
FIC (E. Coli K-12; COE in combination with Chloramphenicol, E. Coli K-12): 1.0
FIC (E. Coli K-12; COE in combination with Penicillin, E. Coli K-12): 0.53
FIC (E. Coli K-12; COE in combination with Rifampin, E. Coli K-12): 0.28
antimicrobial effect of combination (in words) (E. Coli K-12; with rifampin, E. coli K-12): significant synergistic antimicrobial effect
cell viability [3]: ~70%

Compound: Cc1cc(NS(=O)(=O)c2ccc(N)cc2)no1 [Sulfamethoxazole, sulfamethoxazole]
MICantibiotic (E. Coli K-12; E. Coli K-12): 512 µg/mL

Compound: colistin [reference compound]
MICantibiotic [4]: 1
MICantibiotic (Acinetobactor baumanni; antibiotic alone): 256
MICantibiotic ([1]; antibiotic alone): 512
MICantibiotic ([2]; antibiotic alone): 16
MICantibiotic (E. Coli K-12; E. Coli K-12): 1 µg/mL

Compound: penicillin
MICantibiotic (E. Coli K-12; E. Coli K-12): 64 µg/mL

Continued, values first:

MICantibiotic (E. Coli K-12; E. Coli K-12): 16 µg/mL
Compound: O=C(N[C@H](CO)[C@H](O)c1ccc([N+](=O)[O-])cc1)C(Cl)Cl [Chloramphenicol, chloramphenicol]

MICantibiotic (E. Coli K-12; E. Coli K-12): 0.125 µg/mL
Compound: O=C(O)c1cn(C2CC2)c2cc(N3CCNCC3)c(F)cc2c1=O [Ciprofloxacin, ciprofloxacin]

MICantibiotic (E. Coli K-12; E. Coli K-12): 32 µg/mL
Compound: CO[C@H]1/C=C/O[C@@]2(C)Oc3c(C)c(O)c4c(O)c(c(/C=N/N5CCN(C)CC5)c(O)c4c3C2=O)NC(=O)/C(C)=C\C=C\[C@H](C)[C@H](O)[C@@H](C)[C@@H](O)[C@@H](C)[C@H](OC(C)=O)[C@@H]1C [Rifampin, rifampin]
